Our source for the TGI and GI50 values is PubChem BioAssay (NCI).

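Test compounds were applied to cells in 96-well plates for 48 hours at 5 doses. GI50 marks 50% less growth. TGI: total growth inhibition.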

What all share (assay): growth of human tumour cells (NCI), 48 h
Assay [1] has as its system NCI-H460 lung.
Assay [2] relates to U251 CNS.
In assay [3] the test system is TK-10 renal.
Assay [4] deals with SK-MEL-2 melanoma.
Assay [5] has as its system LOX IMVI melanoma.
The subject of assay [6] is HOP-62 NSCLC.
The test system of assay [7] is HOP-92 NSCLC.
For assay [8], the system named is NCI-H522 lung.
The test system of assay [9] is A498 renal.

With `O=C(/N=N/C(=O)OCc1ccccc1)OCc1ccccc1`, the TGI in [1], in assay [2], in assay [3], in assay [4], in [5] and in assay [6] was more than 100 µM in each case. Further, the TGI in assay [7] worked out at 56.8 µM.
On to `COc1ccc(/C=C/CN(C)CCc2ccccc2)cc1OC`, for which the TGI was more than 100 µM in assay [2], more than 100 µM in [3], more than 100 µM in [4] and 9.9 µM in [7].
Consider `COC(=O)/C(=N/NC(=O)C[N+](C)(C)C)C(C(=O)OC)C(=O)C(=O)Nc1ccc(F)cc1` (centres undefined), for which the TGI in assay [1], in [2], in assay [3], in assay [8], in assay [9] and in assay [4] was more than 100 µM throughout. In addition, the TGI in assay [5] and in assay [6] was more than 100 µM in each case.
As to `OCC(O)CC[CH2][Sn]([Br])([c]1ccccc1)[c]1ccccc1` (centres undefined), the GI50 in assay [1] is more than 100 µM; in assay [2] it was more than 100 µM; in assay [3], more than 100 µM; in assay [8], 13 µM; in [4] it was more than 100 µM; in assay [5] it was more than 100 µM. The GI50 in assay [6] and in [7] was more than 100 µM each time. The TGI in [1] was more than 100 µM; in assay [2], more than 100 µM; in assay [3] it was more than 100 µM; in [8], 92.1 µM; in assay [4], more than 100 µM; in [5] it was more than 100 µM. Further, the TGI in [6] and in assay [7] was more than 100 µM each time.
Turning to `COC(=O)c1c/c(=N\NC(=O)CC(=O)Nc2ccccc2OC)c2ccccc2o1`, the TGI in assay [1], in assay [2], in assay [3], in assay [8], in assay [9] and in [4] was more than 100 µM throughout. Also, the TGI in assay [5] and in assay [6] was more than 100 µM throughout.
For the molecule `CCOC(=O)[C]1([Bi]([CH3])[CH3])N=NC(C(=O)OC)=C1C(=O)OC` (centres undefined), the GI50 in assay [1] was more than 100 µM; in assay [2], more than 100 µM; in assay [3], 17.3 µM; in [9], 25.7 µM; in assay [4] it was 18.3 µM; in assay [6], more than 100 µM. Also, in [7], the GI50 was 20.4 µM. Also, the TGI in [1] is more than 100 µM; in assay [2], more than 100 µM; in assay [3], 32.1 µM; in assay [9] it was 49 µM; in [4], 33.7 µM; in assay [6], more than 100 µM. Also, the TGI in assay [7] was found to be 42.8 µM.
Turning to `C/C(CC(=O)Nc1cc(Cl)c(Cl)cc1Cl)=N\NC(N)=O`, the TGI in assay [2], in [3], in assay [8], in assay [4], in [5] and in [6] was more than 100 µM each time. For the same molecule, the TGI in assay [7] is more than 100 µM.
On to `Nc1cc(N)c2nc(-c3ccccc3)c(Nc3ccc(Cl)c(Cl)c3)nc2c1`, for which the GI50 was 8.27 µM in assay [1]; 4.68 µM in assay [2]; 13.7 µM in [3]; 5.3 µM in assay [8]; 12.1 µM in assay [9]; 2.32 µM in assay [4]. The results for the GI50 in assay [5] and in assay [6] were 4.38 µM and 17.5 µM, respectively. Further, the TGI in [1] is 22.9 µM; in [2], more than 100 µM; in [3], 30.1 µM; in assay [8] it was 21.7 µM; in assay [9], 26.3 µM; in assay [4], 19.1 µM. In addition, the TGI is more than 100 µM in assay [5] and 38.4 µM in [6].
As for `COC(=O)/C=C/c1cc(OC)c(OC)c(OC)c1`, the TGI in assay [1], in [3], in assay [8], in assay [4], in [5] and in assay [6] was more than 100 µM throughout. The TGI in assay [7] was more than 100 µM.
Take `O=C1CCC2(c3ccc(F)cc3)Nc3cc(Cl)ccc3N12` (centres undefined): the TGI in assay [2], in assay [8], in [9], in assay [4], in assay [5] and in assay [6] was more than 100 µM each time.
With `Cc1cc2c(cc1C)[n+](=O)c(C(=O)C/C(=N/NC(=O)CC#N)C(=O)Nc1ccccc1C(F)(F)F)c(C)n2[O-]`, the TGI in assay [1] is more than 100 µM; in assay [2], more than 100 µM; in assay [3], more than 100 µM; in [8], 35.5 µM; in [9], more than 100 µM; in assay [4] it was 92.3 µM. Moreover, the TGI in [5] and in [6] was more than 100 µM each time.
For the molecule `NC(CCC(=O)NC(CSSCCCCS(=O)O)C(=O)NCC(=O)O)C(=O)O` (centres undefined), the TGI in assay [1], in [2], in assay [3], in assay [8], in assay [9] and in assay [4] was more than 100 µM throughout. For the same molecule, the TGI in [5] and in [6] was more than 100 µM in each case.
